Reference: patent US20240246951A1, “COMPOUND HAVING BIOLOGICAL ACTIVITY SUCH AS ANTIVIRAL ACTIVITY” (NATIONAL CENTER FOR GLOBAL HEALTH AND MEDICINE, priority 2021, published 2024)
Where two headings read alike, the source gives them in different places.

Tests used:
[1] = target: Mpro/3CL protease of SARS-CoV-2 (Severe acute respiratory syndrome coronavirus 2 (2019-nCoV) (SARS-CoV-2), UniProt P0DTD1); assay: Mpro/3CL protease enzyme inhibitory activity, FRET assay kit; format: biochemical; details: fluorogenic substrate, 25° C.
SARS-CoV-2WK-521 = assay: microbe, parasite or virus in culture; format: cell-based; details: for times more excellent EC50 value as compared with PF-7321332: ratio of EC50 values; for times more excellent EC99 value as compared with PF-7321332: ratio of EC99 values
[2] = Cytotoxicity test, MTT assay; format: cell-based; details: African green monkey, Vero E6 cells
Protocol: (§1) The cytotoxicity test of the test compounds was conducted using Vero E6 cells. Specifically, Vero E6 cells were inoculated in a 96 well plate to be 1×10^4 cells/well, and cultured under standard culture conditions of 3 days, 37° C., and 5% CO2 together with media supplemented with each test compound of each concentration after serial dilution. Thereafter, the viable cell count of each well was quantified by MTT assay to calculate 50% cytotoxicity concentration (CC50).

in vivo = details: mouse, 2 mg/kg; for half-life: iv; for bioavailability: po, bioavailability (BA)
Vero E6 cells = assay: Cytotoxicity test, MTT assay; format: cell-based; details: 3 days
Protocol: as §1

[3] = Severe acute respiratory syndrome coronavirus 2, Vero C1008, 72 h, Vero E6 cells, MOI 0.05, 3 days, read-out: EC50
[4] = Vero E6 cells, MOI 0.05, 3 days
[5] = Severe acute respiratory syndrome coronavirus 2, Vero C1008, 72 h, read-out: EC50

Row | SMILES | CC50 at 3 days [2] | EC99 (SARS-CoV-2WK-521) | EC50 (SARS-CoV-2WK-521; read-out: EC50) | CC50 (Vero E6 cells) | further results
1 | CC1(C)[C@@H]2[C@@H](C(=O)N[C@@H](C[C@@H]3CCNC3=O)C(=O)c3nc4c(F)cccc4s3)N(C(=O)c3cc4c(F)ccc(F)c4[nH]3)C[C@@H]21 [Compound 243, (1R,2S,5S)-3-(4,7-difluoro-1H-indole-2-carbonyl)-N-((S)-1-(4-fluorobenzo[d]thiazol-2-yl)-1-oxo-3-((S)-2-oxopyrrolidin-3-yl)propan-2-yl)-6,6-dimethyl-3-azabicyclo[3.1.0]hexane-2-carboxamide] | > 100000 nM |  |  |  | IC50 [1]: 800 nM; EC50 (SARS-CoV-2WK-521; [3]): 750 nM; EC99 (SARS-CoV-2WK-521; [4]): 9.4 µM
2 | COc1ccc(F)c2[nH]c(C(=O)N3C[C@H]4[C@@H]([C@H]3C(=O)N[C@@H](C[C@@H]3CCNC3=O)C(=O)c3nc5c(F)cccc5s3)C4(C)C)cc12 [Compound 244, (1R,2S,5S)-3-(7-fluoro-4-methoxy-1H-indole-2-carbonyl)-N-((S)-1-(4-fluorobenzo[d]thiazol-2-yl)-1-oxo-3-((S)-2-oxopyrrolidin-3-yl)propan-2-yl)-6,6-dimethyl-3-azabicyclo[3.1.0]hexane-2-carboxamide] | > 100000 nM |  |  |  | IC50 [1]: 600 nM; EC50 (SARS-CoV-2WK-521; [3]): 600 nM; EC99 (SARS-CoV-2WK-521; [4]): 0.99 µM
3 | CC(C)(C)[C@H](NC(=O)C(F)(F)F)C(=O)N1C[C@H]2[C@@H]([C@H]1C(=O)N[C@@H](C[C@@H]1CCNC1=O)C(=O)c1nc3c(F)cccc3s1)C2(C)C [Compound 245, (1R,2S,5S)-3-((S)-3,3-dimethyl-2-(2,2,2-trifluoroacetamido)butanoyl)-N-((S)-1-(4-fluorobenzo[d]thiazol-2-yl)-1-oxo-3-((S)-2-oxopyrrolidin-3-yl)propan-2-yl)-6,6-dimethyl-3-azabicyclo[3.1.0]hexane-2-carboxamide] | > 100000 nM | 0.95 µM |  |  | EC75 (SARS-CoV-2WK-521): 290 nM; EC50 (SARS-CoV-2WK-521; [5]): 80 nM; suppression of proliferation of SARS-CoV-2 (SARS-CoV-2WK-521; concentration of 1 μM): almost completely suppressed; times more excellent EC50 value as compared with PF-7321332 (SARS-CoV-2WK-521): ≥ 20 times; times more excellent EC99 value as compared with PF-7321332 (SARS-CoV-2WK-521): about 10 times; half-life (in vivo): ≥ 45 min; bioavailability (in vivo): ≥ 31%; bioavailability (in vivo; same experiment conducted again, mice, 2 mg/kg P.O. vs I.V., calculated from AUC of FIG. 2): 47.7%
4 | CC(C)(C)[C@H](NC(=O)C(F)(F)F)C(=O)N1C[C@H]2[C@@H](C1C(=S)N[C@@H](C[C@@H]1CCNC1=O)C(=O)c1nc3c(F)cccc3s1)C2(C)C (stereo partly drawn) [Compound 245s, 2,2,2-trifluoro-N-((S)-1-((1R,2S,5S)-2-(((S)-1-(4-fluorobenzo[d]thiazol-2-yl)-1-oxo-3-((S)-2-oxopyrrolidin-3-yl)propan-2-yl)carbamothioyl)-6,6-dimethyl-3-azabicyclo[3.1 0.0]hexan-3-yl)-3,3-dimethyl-1-oxobutan-2-yl)acetamide] |  |  |  |  | EC75 (SARS-CoV-2WK-521; [4]): 550 nM; EC99 (SARS-CoV-2WK-521; [4]): 0.98 µM; times more excellent EC99 value as compared with PF-7321332 (SARS-CoV-2WK-521): about 10 times
5 | CC(C)(C)[C@H](NC(=O)C(F)(F)F)C(=O)N1C[C@H]2[C@@H]([C@H]1C(=S)N[C@@H](C[C@@H]1CCNC1=O)C(=O)c1nc3c(F)cccc3s1)C2(C)C [Compound 245s, 2,2,2-trifluoro-N-((S)-1-((1R,2S,5S)-2-(((S)-1-(4-fluorobenzo[d]thiazol-2-yl)-1-oxo-3-((S)-2-oxopyrrolidin-3-yl)propan-2-yl)carbamothioyl)-6,6-dimethyl-3-azabicyclo[3.1 0.0]hexan-3-yl)-3,3-dimethyl-1-oxobutan-2-yl)acetamide] | > 100000 nM |  |  |  | IC50 [1]: 300 nM; EC50 (SARS-CoV-2WK-521; [3]): 310 nM; times more excellent EC50 value as compared with PF-7321332 (SARS-CoV-2WK-521): ≥ 6 times
6 | CC(C)(C)[C@H](NC(=O)C(F)(F)F)C(=O)N1C[C@H]2[C@@H]([C@H]1C(=O)N[C@@H](C[C@@H]1CCNC1=O)C(=O)c1nc3c(F)ccc(F)c3s1)C2(C)C [Compound 247] |  | <1.0 µM | < 200 nM | > 100000 nM | 
7 | CC(C)(C)[C@H](NC(=O)C(F)(F)F)C(=O)N1C[C@H]2[C@@H]([C@H]1C(=S)N[C@@H](C[C@@H]1CCNC1=O)C(=O)c1nc3c(F)ccc(F)c3s1)C2(C)C [Compound 247s] |  | <1.0 µM | < 300 nM | > 100000 nM | 
8 | CC1(C)[C@@H]2[C@@H](C(=O)N[C@@H](C[C@@H]3CCNC3=O)C(=O)c3nc4c(F)cccc4s3)N(C(=O)[C@H](CC(F)(F)F)NC(=O)C(F)(F)F)C[C@@H]21 [Compound 248] |  | <1.0 µM | < 200 nM | > 100000 nM | 
9 | CC1(C)[C@@H]2[C@@H](C(=S)N[C@@H](C[C@@H]3CCNC3=O)C(=O)c3nc4c(F)cccc4s3)N(C(=O)[C@H](CC(F)(F)F)NC(=O)C(F)(F)F)C[C@@H]21 [Compound 248s] |  | <1.0 µM | < 300 nM | > 100000 nM | 
10 | CC1(C)[C@@H]2[C@@H](C(=O)N[C@@H](C[C@@H]3CCNC3=O)C(=O)c3nc4c(F)cccc4s3)N(C(=O)[C@H](CCC(F)(F)F)NC(=O)C(F)(F)F)C[C@@H]21 [Compound 249] |  | <1.0 µM | < 200 nM | > 100000 nM | 
11 | CC1(C)[C@@H]2[C@@H](C(=S)N[C@@H](C[C@@H]3CCNC3=O)C(=O)c3nc4c(F)cccc4s3)N(C(=O)[C@H](CCC(F)(F)F)NC(=O)C(F)(F)F)C[C@@H]21 [Compound 249s] |  | <1.0 µM | < 300 nM | > 100000 nM | 
12 | CC(C)(F)[C@H](NC(=O)C(F)(F)F)C(=O)N1C[C@H]2[C@@H]([C@H]1C(=O)N[C@@H](C[C@@H]1CCNC1=O)C(=O)c1nc3c(F)cccc3s1)C2(C)C [Compound 250] |  | <1.0 µM | < 200 nM | > 100000 nM | 
13 | CC(C)(F)[C@H](NC(=O)C(F)(F)F)C(=O)N1C[C@H]2[C@@H]([C@H]1C(=S)N[C@@H](C[C@@H]1CCNC1=O)C(=O)c1nc3c(F)cccc3s1)C2(C)C [Compound 250s] |  | <1.0 µM | < 300 nM | > 100000 nM | 
14 | CC(C)(F)[C@H](NC(=O)C(F)(F)F)C(=O)N1C[C@H]2[C@@H]([C@H]1C(=O)N[C@@H](C[C@@H]1CCNC1=O)C(=O)c1nc3c(F)ccc(F)c3s1)C2(C)C [Compound 251] |  | <1.0 µM | < 200 nM | > 100000 nM | 
15 | CC(C)(F)[C@H](NC(=O)C(F)(F)F)C(=O)N1C[C@H]2[C@@H]([C@H]1C(=S)N[C@@H](C[C@@H]1CCNC1=O)C(=O)c1nc3c(F)ccc(F)c3s1)C2(C)C [Compound 251s] |  | <1.0 µM | < 300 nM | > 100000 nM | 
16 | CC(C)(C)[C@H](NC(=O)C(F)(F)F)C(=O)N1C[C@H]2[C@@H]([C@H]1C(=O)N[C@@H](C[C@@H]1CCNC1=O)C(=O)c1nc3cc(F)ccc3s1)C2(C)C [Compound 272, (1R,2S,5S)-3-((S)-3,3-dimethyl-2-(2,2,2-trifluoroacetamido)butanoyl)-N-((S)-1-(5-fluorobenzo[d]thiazol-2-yl)-1-oxo-3-((S)-2-oxopyrrolidin-3-yl)propan-2-yl)-6,6-dimethyl-3-azabicyclo[3.1.0]hexane-2-carboxamide] | > 80000 nM |  |  |  | EC50 (SARS-CoV-2WK-521; [5]): 8 nM; bioavailability (in vivo): 99.3%
17 | CC(C)(C)[C@H](NC(=O)C(F)(F)F)C(=O)N1C[C@H]2[C@@H]([C@H]1C(=O)N[C@@H](C[C@@H]1CCNC1=O)C(=O)c1nc3ccc(F)cc3s1)C2(C)C [Compound 273, (1R,2S,5S)-3-((S)-3,3-dimethyl-2-(2,2,2-trifluoroacetamido)butanoyl)-N-((S)-1-(6-fluorobenzo[d]thiazol-2-yl)-1-oxo-3-((S)-2-oxopyrrolidin-3-yl)propan-2-yl)-6,6-dimethyl-3-azabicyclo[3.1.0]hexane-2-carboxamide] | > 80000 nM |  |  |  | EC50 (SARS-CoV-2WK-521; [5]): 52 nM
18 | COc1cccc2[nH]c(C(=O)N[C@@H](CC(C)C)C(=O)N[C@@H](C[C@@H]3CCNC3=O)C(=O)c3nc4ccccc4s3)cc12 [Compound 2420, reference compound] |  |  |  |  | EC50 (SARS-CoV-2WK-521; Severe acute respiratory syndrome coronavirus 2, Vero C1008, 72 h): 2700 to 3200 nM; half-life (in vivo): ~10 min
19 | CC(C)(C)[C@H](NC(=O)C(F)(F)F)C(=O)N1C[C@H]2[C@@H]([C@H]1C(=O)N[C@H](C#N)C[C@@H]1CCNC1=O)C2(C)C [PF-7321332, reference compound] | > 100000 nM |  |  |  | EC50 (SARS-CoV-2WK-521; [3]): 1900 nM; EC75 (SARS-CoV-2WK-521; [4]): 4390 nM; EC99 (SARS-CoV-2WK-521; [4]): 9.68 µM
